IC50 data for 16 compounds are collected here from US20140357655A1, “SPIROINDOLINE DERIVATIVES AS GONADOTROPIN- RELEASING HORMONE RECEPTOR ANTAGONISTS” (Bayer Intellectual Property GmbH, priority 2012, published 2014).

The assay has as its target T1, human GnRH receptor (Homo sapiens, UniProt P30968).
T1 sequence (P30968 1-328): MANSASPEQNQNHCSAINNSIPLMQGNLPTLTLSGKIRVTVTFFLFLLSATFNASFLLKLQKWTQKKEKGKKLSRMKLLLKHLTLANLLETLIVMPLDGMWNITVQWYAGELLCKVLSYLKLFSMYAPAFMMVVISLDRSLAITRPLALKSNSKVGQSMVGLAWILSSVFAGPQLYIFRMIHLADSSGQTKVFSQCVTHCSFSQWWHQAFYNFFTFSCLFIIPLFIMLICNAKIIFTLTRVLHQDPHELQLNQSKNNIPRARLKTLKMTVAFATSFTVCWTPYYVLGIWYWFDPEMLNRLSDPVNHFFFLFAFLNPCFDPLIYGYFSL
Put plainly: IP-One HTRF assay with buserelin (at EC80) stimulation. The assay is classed as cell-based. The settings on record: CHO cells stably expressing human GnRH receptor, read-out: Potency in IP-One HTRF assay, given as IC50. An excerpt: 2.3. IP-One HTRF® Assay By using homogenous time-resolved fluorescence resonance energy transfer (HTRF), the generation of one component of the GnRH—R signalling cascade can be measured. After stimulation of CHO cells stably expressing human GnRH receptor (established by Prof. Thomas Gudermann, currently University of Marburg, Germany; supplied as frozen cell aliquots by Cell Culture Services, Hamburg, Germany) with the EC80 of the GnRH agonist buserelin, Gq protein-coupled receptor signalling cascade is activated resulting in PLC-dependent cleavage of PIP2 to Inositol-1,4,5-triphosphate (IP3) and Diacylglycerol. The second messenger IP3 is degraded intracellularly to myo-inositol. Inhibition of the final degradation step from Inositol-1-phosphate (IP1) to myo-inositol by addition of lithium chloride leads to accumulation of IP1 in the cells. In cell lysates, IP1 can be detected via an antibody-based HTRF detection technology, where IP1 can displace the FRET acceptor IP1-d2 from binding by Terbium-labelled anti-IP1 antibody as donor resulting in a signal decrease. Compounds were tested for their capability of inhibiting GnRH—R activation by buserelin. For all IP-One HTRF® assays reagents of Cisbio Bioassays (IP-One Tb Jumbo kit, #62IPAPEJ; Cisbio Bioassays, Bagnols sur Cèze Cedex, France) were used.
For the assay, frozen cell aliquots were thawed and a cell suspension (3.33×10^6 cells/mL) containing IP1-d2 (dilution 1:40) was prepared and incubated at 37° C. After 1 h 3 μl of the cell suspension were added to 50 nl of a 100-fold concentrated solution of the test compound in DMSO pre-dispensed in a well of a white low-volume 384-well microtiter plate (Greiner Bio-One, Frickenhausen, Germany). […] Plates were incubated for 1 h at 37° C. and 5% carbon dioxide before the cells were lysed by adding 3 μl Terbium-labelled anti-IP1 antibody (1:40) diluted in Conjugate & Lysis buffer as supplied with the kit. After an incubation for 1 h at 22° C. to enable complete cell lysis and antibody binding to free IP1 or IP1-d2, plates were measured in an HTRF reader, e.g. a RUBYstar, PHERAstar (both BMG Labtechnologies, Offenburg, Germany) or a Viewlux (PerkinElmer LAS, Rodgau-Jügesheim, Germany).
From the fluorescence emissions at 665 nm (FRET) and at 620 nm (background signal of Terbium-antibody), the ratio (emission at 665 nm divided by emission at 620 nm) was calculated and the data were normalized (reaction without test compound=0% inhibition; all other assay components except agonist=100% inhibition). On the same microtiter plate, compounds were tested at 10 different concentrations in the range of 20 μM to 1 nM (20 μM, 6.7 μM, 2.2 μM, 0.74 μM, 0.25 μM, 82 nM, 27 nM, 9.2 nM, 3.1 nM and 1 nM; dilution series prepared before the assay at the level of the 100-fold conc. stock solutions by serial 1:3 dilutions in 100% DMSO) in duplicate values for each concentration. By using an in-house software, the IC50 values were calculated by a 4 parameter fit.
For orientation: TR-FRET usually uses a lanthanide donor and a delayed reading to cut background.

For orientation: IC50 means the concentration needed to halve the response being measured. Consider `O=C(NCc1ncc(F)cc1Cl)c1ccc2c(c1)C1(CCS(=O)(=O)CC1)C(C1CC1)N2S(=O)(=O)c1ccc(F)cc1` (single isomer, unassigned) [Example 17.1, N-[(3-chloro-5-fluoropyridin-2-yl)methyl]-2-cyclopropyl-1-[(4-fluorophenyl)sulfonyl]-1,2,2′,3′,5′,6′-hexahydrospiro[indole-3,4′-thiopyran]-5-carboxamide 1′,1′-dioxide], for which the IC50 worked out at 139 nM.

Regarding `O=C(NCc1ncc(F)cc1Cl)c1ccc2c(c1)C1(CCS(=O)(=O)CC1)C(C1CC1)N2S(=O)(=O)c1ccc(F)cc1` (single isomer, unassigned) [Example 17.2, N-[(3-chloro-5-fluoropyridin-2-yl)methyl]-2-cyclopropyl-1-[(4-fluorophenyl)sulfonyl]-1,2,2′,3′,5′,6′-hexahydrospiro[indole-3,4′-thiopyran]-5-carboxamide 1′,1′-dioxide], the IC50 amounted to 2480 nM.

`O=C(NCc1ccccc1Cl)c1ccc2c(c1)C1(CCS(=O)(=O)CC1)C(C1CC1)N2S(=O)(=O)c1ccc(F)cc1` (single isomer, unassigned) [Example 18.2, N-(2-chlorobenzyl)-2-cyclopropyl-1-[(4-fluorophenyl)sulfonyl]-1,2,2′,3′,5′,6′-hexahydrospiro[indole-3,4′-thiopyran]-5-carboxamide 1′,1′-dioxide]: the IC50 was found to be 5240 nM.

Take `CS(=O)(=O)c1cccc(NC(=O)c2ccc3c(c2)C2(CCS(=O)(=O)CC2)C(C2CC2)N3S(=O)(=O)c2ccc(F)cc2)c1` (single isomer, unassigned) [Example 23.1, 2-cyclopropyl-1-[(4-fluorophenyl)sulfonyl]-N-(3-mesylphenyl)-1,2,2′,3′,5′,6′-hexahydrospiro[indole-3,4′-thiopyran]-5-carboxamide 1′,1′-dioxide]: the IC50 is 1870 nM.

With `CS(=O)(=O)c1cccc(NC(=O)c2ccc3c(c2)C2(CCS(=O)(=O)CC2)C(C2CC2)N3S(=O)(=O)c2ccc(F)cc2)c1` (single isomer, unassigned) [Example 23.2, 2-cyclopropyl-1-[(4-fluorophenyl)sulfonyl]-N-(3-mesylphenyl)-1,2,2′,3′,5′,6′-hexahydrospiro[indole-3,4′-thiopyran]-5-carboxamide 1′,1′-dioxide], the IC50 is 153 nM.

Regarding `NS(=O)(=O)c1cccc(NC(=O)c2ccc3c(c2)C2(CCS(=O)(=O)CC2)C(C2CC2)N3S(=O)(=O)c2ccc(F)cc2)c1` (single isomer, unassigned) [Example 30.1, 2-cyclopropyl-1-[(4-fluorophenyl)sulfonyl]-N-(3-sulfamoylphenyl)-1,2,2′,3′,5′,6′-hexahydrospiro[indole-3,4′-thiopyran]-5-carboxamide 1′,1′-dioxide], the IC50 came out at 441 nM.

On to `NS(=O)(=O)c1cccc(NC(=O)c2ccc3c(c2)C2(CCS(=O)(=O)CC2)C(C2CC2)N3S(=O)(=O)c2ccc(F)cc2)c1` (single isomer, unassigned) [Example 30.2, 2-cyclopropyl-1-[(4-fluorophenyl)sulfonyl]-N-(3-sulfamoylphenyl)-1,2,2′,3′,5′,6′-hexahydrospiro[indole-3,4′-thiopyran]-5-carboxamide 1′,1′-dioxide], for which the IC50 worked out at 190 nM.

On to `Cc1cccnc1CNC(=O)c1ccc2c(c1)C1(CCS(=O)(=O)CC1)C(C1CC1)N2S(=O)(=O)c1ccc(F)cc1` (single isomer, unassigned) [Example 31.1, 2-cyclopropyl-1-[(4-fluorophenyl)sulfonyl]-N-[(3-methylpyridin-2-yl)methyl]-1,2,2′,3′,5′,6′-hexahydrospiro[indole-3,4′-thiopyran]-5-carboxamide 1′,1′-dioxide], for which the concentration for half-maximal inhibition (IC50) was 266 nM.

As for `Cc1cccnc1CNC(=O)c1ccc2c(c1)C1(CCS(=O)(=O)CC1)C(C1CC1)N2S(=O)(=O)c1ccc(F)cc1` (single isomer, unassigned) [Example 31.2, 2-cyclopropyl-1-[(4-fluorophenyl)sulfonyl]-N-[(3-methylpyridin-2-yl)methyl]-1,2,2′,3′,5′,6′-hexahydrospiro[indole-3,4′-thiopyran]-5-carboxamide 1′,1′-dioxide], the half-inhibitory concentration (IC50) is 15100 nM.

Turning to `O=C(NCc1ccccc1C(F)(F)F)c1ccc2c(c1)C1(CCS(=O)(=O)CC1)C(C1CC1)N2S(=O)(=O)c1ccc(F)cc1` (single isomer, unassigned) [Example 32.1, 2-cyclopropyl-1-[(4-fluorophenyl)sulfonyl]-N-[2-(trifluoromethyl)benzyl]-1,2,2′,3′,5′,6′-hexahydrospiro[indole-3,4′-thiopyran]-5-carboxamide 1′,1′-dioxide], the IC50 amounted to 34 nM.

As to `O=C(NCc1ccccc1C(F)(F)F)c1ccc2c(c1)C1(CCS(=O)(=O)CC1)C(C1CC1)N2S(=O)(=O)c1ccc(F)cc1` (single isomer, unassigned) [Example 32.2, 2-cyclopropyl-1-[(4-fluorophenyl)sulfonyl]-N-[2-(trifluoromethyl)benzyl]-1,2,2′,3′,5′,6′-hexahydrospiro[indole-3,4′-thiopyran]-5-carboxamide 1′,1′-dioxide], the IC50 was 1260 nM.

In the case of `O=C(NC1CCOc2ccccc21)c1ccc2c(c1)C1(CCS(=O)(=O)CC1)C(C1CC1)N2S(=O)(=O)c1ccc(F)cc1` (single isomer, unassigned) [Example 33.1, 2-cyclopropyl-N-(3,4-dihydro-2H-chromen-4-yl)-1-[(4-fluorophenyl)sulfonyl]-1,2,2′,3′,5′,6′-hexahydrospiro[indole-3,4′-thiopyran]-5-carboxamide 1′,1′-dioxide], the IC50 came out at 425 nM.

For `O=C(NC1CCOc2ccccc21)c1ccc2c(c1)C1(CCS(=O)(=O)CC1)C(C1CC1)N2S(=O)(=O)c1ccc(F)cc1` (single isomer, unassigned) [Example 33.2, 2-cyclopropyl-N-(3,4-dihydro-2H-chromen-4-yl)-1-[(4-fluorophenyl)sulfonyl]-1,2,2′,3′,5′,6′-hexahydrospiro[indole-3,4′-thiopyran]-5-carboxamide 1′,1′-dioxide], the IC50 is above 20000 nM.

Consider `O=C(NC1CCOc2ccccc21)c1ccc2c(c1)C1(CCS(=O)(=O)CC1)C(C1CC1)N2S(=O)(=O)c1ccc(F)cc1` (single isomer, unassigned) [Example 33.3, 2-cyclopropyl-N-(3,4-dihydro-2H-chromen-4-yl)-1-[(4-fluorophenyl)sulfonyl]-1,2,2′,3′,5′,6′-hexahydrospiro[indole-3,4′-thiopyran]-5-carboxamide 1′,1′-dioxide], for which the IC50 was above 20000 nM.

`COC(=O)c1cccc(NC(=O)c2ccc3c(c2)C2(CCS(=O)(=O)CC2)C(C2CC2)N3S(=O)(=O)c2ccc(F)cc2)c1` (single isomer, unassigned) [Example 34.1, methyl 3-[({2-cyclopropyl-1-[(4-fluorophenyl)sulfonyl]-1′,1′-dioxido-1,2,2′,3′,5′,6′-hexahydrospiro[indole-3,4′-thiopyran]-5-yl}carbonyl)amino]benzoate]: the 50% inhibitory concentration (IC50) turned out to be 38 nM.

On to `COC(=O)c1cccc(NC(=O)c2ccc3c(c2)C2(CCS(=O)(=O)CC2)C(C2CC2)N3S(=O)(=O)c2ccc(F)cc2)c1` (single isomer, unassigned) [Example 34.2, methyl 3-[({2-cyclopropyl-1-[(4-fluorophenyl)sulfonyl]-1′,1′-dioxido-1,2,2′,3′,5′,6′-hexahydrospiro[indole-3,4′-thiopyran]-5-yl}carbonyl)amino]benzoate], for which the IC50 worked out at 825 nM.
